Measurements published in PMC8533149 (Biomolecules, 2021).

System: HIV-1 LTR-III G-quadruplex (FAM/TAMRA-labeled LTR-III)
Experiment: FRET melting assay, LTR-III G4
Format: binding
Settings: Table S1 primary screening, ligand:ODN 50:1, singlicate
Experimental: To evaluate stabilizing properties of the ligands in a complex with oligodeoxyribonucleotides (ODNs) melting with fluorescence registration was used. ODN (0.5 μM) (Table 1), labeled with 6-carboxyfluorescein (FAM) and 6-carboxytetramethylrhodamine (TAMRA) at the 5′- and 3′-end, respectively, were folded in lithium cacodylate buffer (10 mM, pH 7.4) with 100 mM KCl by heating at 95 °C for 5 min and gradually cooling to r.t. GFP chromophore analogs (5 mM solution in DMSO) were diluted with the same buffer to the final concentration of 25 μM and mixed with an equal volume of 0.5 μM ODN solution resulting in a molar ratio of 50:1 (total volume was 50 μL). For the titration experiments molar ratios of 20:1 and 2:1 were used. Samples were analyzed using DTprime qPCR system (DNA-Technology LLC, Moscow, Russia). Fluorescence was registered by detection of FAM emission at 520 nm upon excitation at 495 nm in the temperature range of 30–95 °C with 1 °C/min gradient. Tm was determined using the instrument software and ΔTm was calculated relative to ODN Tm in a buffer solution containing 0.25% (v/v) DMSO. The primary and secondary screening were carried out in singlicate and triplicate, respectively.

Row | Structure (SMILES) | LTR-III ΔTm
1 | CSC1=NC(=Cc2ccc(N(C)C)cc2)C(=O)N1 [AL 166.1] | 0.1 °C
2 | CNC(=O)C(=Cc1ccc(C#N)cc1)N=[N+]=[N-] [N 830A] | -0.1 °C
3 | CSC(=CC1=NC(=Cc2ccc(O)cc2)C(=O)N1C)c1ccccc1 [SA 599.21] | -0.3 °C
4 | CC1=NC(=Cc2ccc(O)cc2O)C(=O)N1C [N 844.1] | -0.1 °C
5 | COc1ccc(C=C2C(=O)N(C)C(C)=[N+]2C)cc1.O=S(=O)([O-])C(F)(F)F [M 2060] | -0.2 °C
6 | CCNCC.CCOC(=O)c1noc(=O)c(O)c1-c1ccccc1 [AL 58] | 0.1 °C
7 | COC(=O)c1ccc(C=C2N=C(C)N(C)C2=O)cc1 [SA 400] | 0 °C
8 | O=C1C(=C2N=C3C=CC=CN3C2=O)N=C2C=CC=CN12 [N 817.2] | -0.1 °C
9 | COc1cc(O)cc(OC)c1C=C1N=C(C)N(C)C1=O [N 976] | 0.5 °C
10 | CN1C(=O)C(=Cc2ccc(O)cc2)N=C1C=Cc1ccccc1O [ccA 15] | 0.5 °C
11 | COc1cccc(C=C2N=C(C)N(CCNC(=O)OC(C)(C)C)C2=O)c1 [M 2026f] | -0.4 °C
12 | CNc1ccc(C=C2N=C(C)N(C)C2=O)cc1N [M 1165] | 0.9 °C
13 | CC(=O)NC(=Cc1ccccc1)C(=O)NO [SV 6] | 0 °C
14 | O=C1NC(=S)SC1=Cc1cc(Br)c(O)c(Br)c1 [SAI 112] | 0.3 °C
15 | COc1ccc(C=C2N=C(Nc3ccc(Br)cc3)N(C)C2=O)cc1 [SA 158] | 0.2 °C
16 | CCC1=NC(=Cc2ccc(OC)cc2)C(=O)N1C [M 497a2] | -0.4 °C
17 | CCC1=NC(=Cc2c[nH]c3ccccc23)C(=O)O1 [SV 11] | 0 °C
18 | CC(C)OC(=O)c1noc(C(=O)N2CCOCC2)c1-c1cccc(C(F)(F)F)c1 [SA 344A] | -0.5 °C
19 | CC(C)OC(=O)c1noc(C(=O)NCc2ccccc2)c1-c1cccs1 [SA 330E] | -0.7 °C
20 | CC1=NC(=Cc2ccc(Br)cc2)C(=O)N1C [SV 51.10] | -0.2 °C
21 | CC(=O)C1=N/C(=C\c2c[nH]c3ccccc23)C(=O)N1C [M 1975] | -0.6 °C
22 | COc1cc(O)ccc1C=C1N=C(C(F)(F)F)N(C)C1=O [M 2738c] | 0.4 °C

Row | Structure (SMILES) | LTR-III ΔTm
23 | CNC(=O)C(=Cc1ccc(C#N)cc1)N=P(c1ccccc1)(c1ccccc1)c1ccccc1 [N 831] | 0 °C
24 | CC1=NC(=Cc2ccc([N+](=O)[O-])cc2)C(=O)N1C [SA 412] | 0 °C
25 | COc1ccc(-c2c(C(=O)OC(C)C)noc2C(=O)N2CCCCC2)cc1 [SA 375] | -0.4 °C
26 | CNC(=O)C(=Cc1ccncc1)N=P(c1ccccc1)(c1ccccc1)c1ccccc1 [N 833] | -0.6 °C
27 | CN(C)c1ccc(C=C2NC(=S)NC2=O)cc1 [AL 165] | -0.2 °C
28 | COc1cc(O)ccc1C=C1N=C(C=Cc2cc(Cl)nc(Cl)c2)N(C)C1=O [N 960b] | 0.7 °C
29 | COc1cc(O)ccc1/C=C1N=C(/C=C(\C#N)c2cccs2)N(C)C\1=O [MID 153] | 2 °C
30 | C=CCN1C(=O)C(=Cc2ccc(O[Si](c3ccccc3)(c3ccccc3)C(C)(C)C)cc2)N=C1C [M 653] | -0.2 °C
31 | CC1=NC(=Cc2ccc(N3CCCC3)cc2)C(=O)N1C [N 704] | -0.2 °C
32 | COc1ccc(C=C2N=C(Nc3ccc(OC)cc3)N(C)C2=O)cc1 [SA 168] | -0.4 °C
33 | COc1ccc(C=C2N=C3C(=O)NCCN3C2=O)cc1 [JL 06.1] | 0.1 °C
34 | CNC(=O)C(=Cc1ccccc1)N=P(c1ccccc1)(c1ccccc1)c1ccccc1 [N 832] | -0.5 °C
35 | CC(C)OC(=O)c1noc(C(=O)NCc2ccccc2)c1-c1ccccc1F [SA 331E] | -0.9 °C
36 | CNC(=O)C(=Cc1ccc(O)c(CO)c1)NC(=O)c1ccccc1 [X 29] | -0.6 °C
37 | CC1=NC(=Cc2ccc(O)cc2)C(=O)N1 [GA 01] | -0.4 °C
38 | CON1C(=O)C(=Cc2ccc(O)cc2)N=C1CCC(C)C [M 552] | 0 °C
39 | COc1ccc(C=C2N=C(C=C(OC(=O)c3ccc(C)cc3)c3ccc(C)cc3)N(C)C2=O)cc1 [SV 18] | 0.4 °C
40 | CN1C(=O)C(=Cc2cc(Cl)c(O)c(Cl)c2)N=C1C=Cc1ccncc1 [N 901] | 0.4 °C
41 | CC(C)(C)[Si](Oc1ccc(/C=C/CO)cc1)(c1ccccc1)c1ccccc1 [M 1359] | 0.1 °C
42 | CNC(=O)c1onc(C(=O)OC(C)C)c1-c1ccccc1F [SA 331A] | -0.7 °C
43 | CC(C)OC(=O)c1noc(C(=O)NCc2ccccc2)c1-c1cccc2ccccc12 [SA 343B] | -0.9 °C
44 | COc1cc(C=C2SC(=S)NC2=O)c(OC)cc1O [SAI 115] | -0.3 °C

Row | Structure (SMILES) | LTR-III ΔTm
45 | CCN(CC)c1ccc2c(C=CN(C)C)cc(=O)oc2c1 [N 582.1] | 0 °C
46 | COc1cc(O)ccc1/C=C1N=C(/C=C/c2ccncc2)N(C)C\1=O [N 871B] | 0.4 °C
47 | COc1ccc(C=C2N=C(C=C(O)c3cccs3)N(C)C2=O)cc1 [N 539.1] | 0 °C
48 | O=C1/C(=C/c2ccncc2)N=C2C=CC=CN12 [N 817] | 0 °C
49 | COc1cc(O)ccc1C=C1N=C(C=Cc2ccc(N(C)C)cc2)N(C)C1=O [MID 147] | 0.4 °C
50 | COc1ccc(C=C2N=C3C(=O)NCCN3C2=O)cc1OC [JL 06.2] | 0.4 °C
51 | CCN(CC)c1ccc(C=C2N=C(C=CC=Cc3ccc(OC)cc3)N(C)C2=O)c(B(F)F)c1 [M 1971c] | 0.6 °C
52 | COc1ccc(C=C2N=C(Nc3ccccc3)N(C)C2=O)cc1 [M 1944b] | -0.3 °C
53 | CC1=NC(=Cc2ccc3cc(N(C)C)ccc3c2)C(=O)N1C [X 001] | -0.5 °C
54 | CN1C(=O)C(=Cc2ccc(O)cc2)N=C1C=Cc1ccccc1F [ccA 18] | 0.1 °C
55 | CN1C(=O)C(=Cc2ccc(OCC(NC(=O)OC(C)(C)C)C(=O)O)cc2)N=C1c1ccccc1 (stereo not drawn) [GR 161] | -0.2 °C
56 | CC1=NC(=Cc2ccc(N3CCC3)cc2)C(=O)N1C [N 710.12] | 0.1 °C
57 | COc1ccc2cc(OC)c(C=C3N=C(C)N(C)C3=O)cc2c1 [SA 410] | -0.2 °C
58 | CC1=CC(C)(C)N(C)c2ccc(C=C3N=C(C)N(CCCCO)C3=O)cc21 [N 141] | 0.2 °C
59 | CC1=NC(=Cc2cc(C(C)(C)C)c(O)c(C(C)(C)C)c2)C(=O)N1C [M 2273.1] | 0.2 °C
60 | CCOC(=O)CN1C(=O)C(=Cc2cccc([N+](=O)[O-])c2)N=C1C [SA 111] | -0.1 °C
61 | CC1=NC(=Cc2ccc(O)cc2)C(=O)N1C [GA 03] | 0.5 °C
62 | COc1cc(C=C2N=C(C(F)(F)F)N(C)C2=O)c(OC)cc1O [M 2738d] | 1.4 °C
63 | CCN(CC)c1ccc(C=C2N=C3C=CC=CN3C2=O)cc1 [N 641] | -0.5 °C
64 | CC1=CC(C)(C)N(C)c2ccc(C=C3N=C(C)N(C)C3=O)cc21 [M 1152] | 0.6 °C
65 | COc1cc(O)cc(OC)c1C=C1N=C(C=Cc2cc(Cl)nc(Cl)c2)N(C)C1=O [N 973] | 2.3 °C
66 | COC(=O)c1noc(C(=O)NCc2ccccc2)c1-c1ccc(OC)cc1 [SA 561D] | -0.4 °C

Row | Structure (SMILES) | LTR-III ΔTm
67 | CC1=NC(=Cc2cc(F)c(O)c(F)c2)C(=O)N1C [M 2296] | -0.4 °C
68 | COc1cccc(C=C2N=C(C)N(C)C2=O)c1 [SV 50.11] | -0.2 °C
69 | COc1cc(/C=C/c2ccc(O)cc2OC)oc(=O)c1 [SAI 32] | 0.4 °C
70 | CC1=NC(=Cc2ccc(N3CCCCC3)cc2)C(=O)N1C [N 665] | -0.3 °C
71 | O=C1NC(=S)SC1=Cc1cc(F)c(O)c(F)c1 [SAI 118] | 0 °C
72 | CC1=NC(=Cc2cc(F)c(O)c(F)c2)C(=O)N1 [N 853] | -0.9 °C
73 | CN(C)C=CC1=NC(=C(N)c2ccccc2)C(=O)N1C [ZS 182] | 0 °C
74 | CC(=O)Oc1ccc(C=C2N=C(C)NC2=O)cc1 [X 13] | -0.8 °C
75 | CC1=NC(=Cc2ccc(O)c([N+](=O)[O-])c2)C(=O)N1C [M 2482] | -1.2 °C
76 | COC(=O)c1noc(C(=O)N2CCOCC2)c1-c1ccc(OC)cc1 [SA 561E] | -0.7 °C
77 | CC(=O)Oc1ccc(C=C2N=C(C)N(C)C2=O)cc1 [M 2370] | 0 °C
78 | COc1ccc(C=CC2=NC(=Cc3ccnc4ccccc34)C(=O)N2C)cc1 [AL 122] | -0.6 °C
79 | COc1ccc(OC)c(C=C2N=C(C=Cc3cc(Br)c(O)c(Br)c3)N(C)C2=O)c1 [N 851A] | 1.4 °C
80 | CCOC(=O)CN1C(=O)C(=Cc2ccc(OC)cc2)N=C1C [SA 117] | -0.2 °C
81 | CN1C(=O)C(=Cc2cc(Br)c(O)c(Br)c2)N=C1C=Cc1ccncc1 [N 848.1] | -1.8 °C
82 | COc1ccc(CN(C(C)=O)C(C)C2=NC(=Cc3ccc(O)cc3)C(=O)N2C)cc1 (stereo not drawn) [X 23] | 0.5 °C
83 | CC1=NC(=Cc2ccccc2)C(=O)N1CCNC(=O)OC(C)(C)C [M 2022d] | -0.3 °C
84 | COc1cc(O)ccc1C=C1N=C(Cc2ccccc2)N(C)C1=O [N 1135] | 0 °C
85 | CC1=NC(=Cc2c[nH]c3ccccc23)C(=O)N1C [GC 07] | -0.4 °C
86 | NC(=C1N=C2C=CC=CN2C1=O)c1ccc(Cl)cc1 [ZS 228] | 0.3 °C
87 | CN1C(=O)C(=Cc2ccc(OCc3ccccc3)cc2)N=C1C(C)(C)C [X 20] | -0.2 °C
